Results from patent US20250057808A1, “COMPOSITION COMPRISING BETA LACTAM FOR TREATING ALCOHOL DEPENDENCE AND ALCOHOL ASSOCIATED DISEASES OR CONDITIONS” (Temple University of the Commonwealth System of Higher …, priority 2023, published 2025).
Entries after “also recorded” stand apart in the source; their conditions may differ.

How the values were obtained:
[1] = test system: mGluR1; test: Western blot mGluR1 expression in NAc-core and NAc-shell; type: in vivo, P rats; details: MC-100093 50 mg/kg or ceftriaxone 200 mg/kg i.p. 5 days; among all groups
Protocol: (§1) We used micro-punch procedure to dissect the subregions of the NAc such as NAc-core and NAc-shell as well as the subregions of prefrontal cortex such as infralimbic (IL) and prelimbic (PL) from the brain on day 6 after the last injection day. P rats were removed from the cage and rapidly euthanized by CO2 inhalation followed by rapid decapitation with a guillotine. Brains were isolated and immediately frozen on dry ice and stored at −80° C. The stereotaxic coordinates provided by Paxinos and colleague's rat brain stereotactic atlas was used to isolate NAc-core and NAc-shell using a cryostat apparatus (−20° C.), which then kept at −80° C. for later western blot analyses.
(§2) Western Blot assay was performed to measure changes in the expression of GLT-1, xCT, mGluR1, mGluR5, PPAR-α, PPARγ, GAPDH and β-tubulin in the NAc-core and NAc-shell as described in previous publications. A lysis buffer containing protease and phosphatase inhibitors was used to generate a homogenate of liver, Nac-core, and Nac-shell samples. The amount of protein was quantified using a detergent compatible protein assay (Bio-Rad, Hercules, CA, USA) for each sample. Samples were mixed with laemmli dye and loaded with equal amounts on polyacrylamide gels (10%), which separated the proteins using electrophoresis. After that, polyvinylidene difluoride (PVDF) membranes were used to transfer the proteins electrophoretically from the gels. Membranes were incubated in 5% free-fat milk in Tris-buffered saline with Tween-20 (TBST) for 30-60 minutes at room temperature. Membranes were then incubated with appropriate primary antibodies overnight at 4° C.: rabbit anti-GLT-1 (1:5000, Abcam, ab41621), rabbit anti-xCT (1:2000, Abcam, ab175186), rabbit anti-mGluR1 (1:1000, Abcam, ab82211), rabbit anti-mGluR5 (1:1000, Abcam, ab76316), rabbit anti-PPAR-α (1:1000, Abcam, ab24509), and rabbit anti-PPARγ (1:1000, Abcam, ab209350). Mouse anti-β-tubulin (1:1000; BioLegend) was used as a loading control antibody for the brain samples and rabbit anti-GAPDH (1:5000; cell signaling) was used as a loading control antibody for the liver samples. Membranes were washed five times on the next day with TBST followed by incubation with appropriate secondary antibody (1:5000) for 90 minutes at room temperature. Chemiluminescent reagents (Super Signal West Pico, Pierce Inc.) were used to detect the proteins using a GeneSys imaging system to develop the digitized blot images. Water-control group data were represented as 100% and all other values were expressed relative to control group to detect changes in the expression of the protein of interest in the brain and liver samples.
(§3) All statistical analyses were conducted with Graphpad Prism software, with p-values of 0.05 or less being statistically significant. […]

[2] = test system: GLT-1; test: GLT-1 expression in mPFC subregions IL and PL (further studies, 100 mg/kg); type: in vivo, Male P rats; details: MC-100093 100 mg/kg i.p. 5 days
Protocol: as §1
Western Blot assay was performed to measure changes in the expression of GLT-1, xCT, mGluR1, mGluR5, PPAR-α, PPARγ, GAPDH and β-tubulin in the NAc-core and NAc-shell as described in previous publications. A lysis buffer containing protease and phosphatase inhibitors was used to generate a homogenate of liver, Nac-core, and Nac-shell samples. The amount of protein was quantified using a detergent compatible protein assay (Bio-Rad, Hercules, CA, USA) for each sample. Samples were mixed with laemmli dye and loaded with equal amounts on polyacrylamide gels (10%), which separated the proteins using electrophoresis. […]

[3] = test system: mGluR5; test: Western blot mGluR5 expression in NAc-core and NAc-shell; type: in vivo, P rats; details: MC-100093 50 mg/kg or ceftriaxone 200 mg/kg i.p. 5 days
Protocol: as §1, §2, §3

[4] = test system: GLT-1; test: Western blot GLT-1 expression in NAc-core, NAc-shell and liver (50 mg/kg study); type: in vivo, P rats; details: MC-100093 50 mg/kg or ceftriaxone 200 mg/kg i.p. 5 days; for Protein expression of GLT-1 in the NAc-shell: vs Ethanol group
Protocol: as §1, §2
All statistical analyses were conducted with Graphpad Prism software, with p-values of 0.05 or less being statistically significant. We performed a two-way (mixed model) ANOVA followed by Bonferroni multiple comparison post-hoc test to analyze 24 h ethanol consumption, 24 h water consumption, and daily body weight. For the Western blot and oil red O staining analysis, we performed one-way ANOVA with Newman-Keuls as a post hoc multiple comparison test to measure differences between groups as a percentage (relative to control values).

[5] = test system: GLT-1; details: cited from earlier work

SMILES: C[C@@H](O)[C@H]1C(=O)N[C@@H]1[C@@H](C)C(=O)N1CCN(C)CC1 [MC-100093]
- Protein expression of mGluR1 in the NAc-core [1]: non-significant difference; also recorded: no significant difference
- Protein expression of mGluR1 in the NAc-shell [1]: non-significant differences; also recorded: no significant difference
- GLT-1 expression in the prelimbic frontal cortex (PL) ([2]; vs control/saline and ethanol/saline): increased GLT-1 expression in both subregions of mPFC; also recorded: non-statistically significant increase of GLT-1 expression; also recorded: upregulated the expression of GLT-1
- GLT-1 expression in the infralimbic prefrontal cortex (IL) ([2]; vs ethanol/saline): increased GLT-1 expression in both subregions of mPFC; also recorded: significantly higher levels of GLT-1 expression; also recorded: increased the expression of GLT-1; also recorded: upregulated GLT-1 expression
- Protein expression of mGluR5 in the NAc-core ([3]; among all groups): non-significant difference; also recorded: no significant difference
- Protein expression of mGluR5 in the NAc-shell ([3]; vs control or ethanol groups): no significant change in the expression of mGluR5; also recorded: significantly downregulated in ethanol group compared to control, Ethanol-MC (50 mg/kg), and Ethanol-CEF (200 mg/kg) groups; also recorded: normalizing levels of mGluR5
- Protein expression of GLT-1 in the liver [4]: normalized GLT-1 level; also recorded: normalize the PPAR-α and GLT-1 levels in the liver
- Protein expression of GLT-1 in the NAc-core ([4]; among Control, Ethanol, Ethanol-MC, Ethanol-CEF): non-significant difference; also recorded: no significant difference
- Protein expression of GLT-1 in the NAc-shell [4]: normalized GLT-1 and xCT levels in the NAc-shell
- Protein expression of GLT-1 in the NAc-shell ([4]; listed as MC-100095): significantly increased
- GLT-1 upregulatory properties [5]: potent GLT-1 upregulator; also recorded: enhanced GLT-1 upregulatory properties compared to ceftriaxone
